Values of other authors as cited in paper PMC3819103 (Magnetic resonance in medicine : official journal of the …, 2010).

Tested on: blood-brain barrier

β-Ala(Mys)-Arg-Arg-Arg-Arg-Arg-Arg-Arg-Cys-NH2 [MPAP]
Ability to cross the blood-brain barrier and localization: could cross the blood-brain barrier, followed by localization to the cytoplasm
Delivery of a near-infrared dye across the blood-brain barrier (earlier studies): can deliver a near-infrared dye across the blood-brain barrier
